Calls of active or inactive are those of the source. No cut-off for these calls is given here.

Consider 1 molecule from ChEMBL document CHEMBL4028831, “Improvement of hERG-ROMK index of spirocyclic ROMK inhibitors through scaffold optimization and incorporation of novel pharmacophores” (Bioorg Med Chem Lett, 2017).

For data set [1], the system named is Rattus norvegicus. The data set is described as follows: Antihypertensive activity in rat spontaneous hypertensive model assessed as change in systolic blood pressure at 3 mg/kg, po qd measured after 3 days. It is filed as functional.
Data set [2] can be described thus: Volume of distribution at steady state in Wistar Han rat at 1 mg/kg, iv or 2 mg/kg, po. The following applies: in vivo.
For data set [3], the target named is T1, Inward rectifier potassium channel 2 (Homo sapiens, UniProt P63252).
T1 sequence (P63252 whole entry): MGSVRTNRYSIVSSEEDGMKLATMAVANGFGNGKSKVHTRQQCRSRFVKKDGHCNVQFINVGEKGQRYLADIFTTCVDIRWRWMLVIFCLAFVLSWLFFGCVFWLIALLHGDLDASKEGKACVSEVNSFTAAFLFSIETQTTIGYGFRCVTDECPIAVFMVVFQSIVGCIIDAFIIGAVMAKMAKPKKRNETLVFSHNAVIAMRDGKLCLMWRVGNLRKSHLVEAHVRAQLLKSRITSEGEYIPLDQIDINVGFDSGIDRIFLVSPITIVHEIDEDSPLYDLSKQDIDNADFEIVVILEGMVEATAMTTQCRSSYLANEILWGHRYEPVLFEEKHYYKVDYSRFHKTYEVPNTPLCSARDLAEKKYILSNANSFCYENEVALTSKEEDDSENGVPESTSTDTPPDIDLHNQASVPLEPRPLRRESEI
The data set is described as follows: Inhibition of Kir2.1 (unknown origin).

The target in data set [4] is Cytochrome P450 2D6 (Homo sapiens, UniProt P10635). The data set is described as follows: Inhibition of CYP2D6 (unknown origin). The class given is ADME.
Cytochrome P450 2D6, sequence (P10635 whole entry): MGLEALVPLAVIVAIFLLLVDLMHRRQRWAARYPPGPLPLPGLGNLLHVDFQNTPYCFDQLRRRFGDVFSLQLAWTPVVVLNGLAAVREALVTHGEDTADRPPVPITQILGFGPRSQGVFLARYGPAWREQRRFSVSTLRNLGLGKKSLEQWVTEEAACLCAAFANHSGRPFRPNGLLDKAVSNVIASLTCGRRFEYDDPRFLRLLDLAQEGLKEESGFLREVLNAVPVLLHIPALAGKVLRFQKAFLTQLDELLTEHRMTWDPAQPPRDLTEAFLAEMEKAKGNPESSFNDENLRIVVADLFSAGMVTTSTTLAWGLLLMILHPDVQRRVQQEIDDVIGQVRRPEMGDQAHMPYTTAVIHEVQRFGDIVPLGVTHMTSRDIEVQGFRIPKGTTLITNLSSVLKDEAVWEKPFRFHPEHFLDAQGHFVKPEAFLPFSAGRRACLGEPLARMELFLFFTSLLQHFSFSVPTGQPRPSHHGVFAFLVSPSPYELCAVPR
Data set [5] in a line: Fraction unbound in human plasma. The class given is ADME, cell-free.
Data set [6] deals with Cavia porcellus. The data set is described as follows: Cardiotoxicity in anesthetized cardiovascular guinea pig model assessed as prolongation of QTc interval at 7 mg/kg administered as iv infusion relative to control. The class given is toxicity, organism-based. Conditions: in vivo.
Data set [7] can be described thus: Unbound fraction in guinea pig plasma at 10 mg/kg administered as iv infusion. It is filed as ADME, organism-based, Cavia porcellus. The following applies: in vivo.
Data set [8] concerns Rattus norvegicus. The data set is described as follows: Antihypertensive activity in rat spontaneous hypertensive model assessed as induction of kaliuresis at 3 mg/kg, po qd measured after 3 days. It is filed as functional, organism-based.
Data set [9] has as its target Cytochrome P450 3A4 (Homo sapiens, UniProt P08684). The data set is described as follows: Time dependent inhibition of CYP3A4 (unknown origin) in presence of NADPH. The class given is ADME.

Cytochrome P450 3A4, sequence (P08684 whole entry): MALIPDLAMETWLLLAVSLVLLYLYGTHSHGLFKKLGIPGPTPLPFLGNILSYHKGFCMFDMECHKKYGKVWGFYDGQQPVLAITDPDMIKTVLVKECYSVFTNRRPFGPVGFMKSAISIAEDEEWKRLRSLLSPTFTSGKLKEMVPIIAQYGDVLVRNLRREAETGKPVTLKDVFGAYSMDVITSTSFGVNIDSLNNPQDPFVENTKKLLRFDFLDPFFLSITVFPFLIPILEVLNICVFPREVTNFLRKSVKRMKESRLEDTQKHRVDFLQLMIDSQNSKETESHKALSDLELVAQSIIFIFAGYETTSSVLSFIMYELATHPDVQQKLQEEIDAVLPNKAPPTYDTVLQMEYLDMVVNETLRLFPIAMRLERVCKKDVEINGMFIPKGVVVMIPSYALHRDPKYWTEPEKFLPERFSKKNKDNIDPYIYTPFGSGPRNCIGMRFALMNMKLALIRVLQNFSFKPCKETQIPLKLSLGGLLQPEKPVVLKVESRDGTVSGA

For `Cc1c([C@@H](O)CN2CCC3(CC2)CCN(c2ccc(=O)n(C)n2)C3=O)ccc2c1COC2=O`, the Activity is given as -14 mmHg in [1] and 12% in data set [6]. This molecule also registered a Vd in data set [2] of 3.3 L/kg. For the same molecule, the IC50 (in general, the concentration at which inhibition is half-maximal) in data set [3] is greater than 100 µM; in [4], greater than 50 µM; in [9], greater than 50 µM. For the same molecule, the fraction unbound (commonly the share of the substance not bound to proteins or other matrix) in data set [5] stood at 0.456. Also, the “Cp(f)” value in data set [7] worked out at 22.5 µM. Further, the outcome in data set [8] was inactive.
